Results as given in US6429286B1, “Immunoregulatory molecules for costimulatory signal transduction” (priority 1997, dated 2002).
No end group written: not given here.

Legend:
[1] = system: anti-mouse CTLA-4 monoclonal antibody; assay: ELISA: reactivity of plate-coated phage clones with the anti-mouse CTLA-4 monoclonal antibody; type: binding, hamster; settings: phage 4x10^9 virions/well, antibody 200 ng/ml, FIG. 2 and 3
Experimental: The obtained 58 phage clones were subjected to primary screening with ELISA. A 96 well ELISA plate (Sumitomo Bakelite, Tokyo) was coated with each phage (4×10^9 virions/well/40 μl) purified as described by Smith et al. (G. P. Smith, Method in Enzymology, Vol. 217, p.228-257 (1993), Academic Press) at 4° C. overnight. The plate was washed with TBST and was blocked with 100 μl/well of 50 mM Tris-HCl, pH 7.5, 150 mM NaCl supplemented with 0.02% NaN3 and 1% BSA at room temperature for 2 hours. After washing with TBST, the plate was added with the anti-mouse CTLA-4 monoclonal antibody (200 ng/ml/well/100 μl) and reacted at room temperature for 1 hour. After washing with TBST; the plate was reacted with anti-hamster IgG antibody (Zymet, California) labeled with alkaline phosphatase diluted to 250-fold with TBS at room temperature for 1 hour. After washing, the plate was added with the substrate sodium p-nitrophenylphosphate hexahydrate (Wako Junyaku, Osaka) was added and absorbance at 405 nm was measured.
Whether each of the motifs as shown in Example 4 specifically binds to the anti-mouse CTLA-4 monoclonal antibody was investigated. A degree of specificity was determined by ELISA as described in Example 3. As a negative control, anti-mouse CD28 antibody (Phamingen, San Diego), having the same isotype with the anti-mouse CTLA-4 monoclonal antibody, and hamster IgG were used. Anti-hamster IgG antibody was used as a detection antibody. […] E. coli producing the phage expressing F2 sequence and the phage expressing F6 sequence have been deposited by the applicant in accordance with the Budapest Treaty as Escherichia coli F2 [FERM BP-6009] and as Escherichia coli F6 [FERM BP-60103], respectively, at National Institute of Bioscience and Human-Technology Agency of Industrial Science and Technology, 1-3, Higashi 1-chome, Tsukuba-shi, Ibaraki-ken, 305, Japan, on Apr. 14, 1997 (original deposition date: transferred from FERM P-16192 and FERM P-16193, respectively, to the deposition under the Budapest Treaty on Jul. 4, 1997).

[2] = system: T cells (spleen cells); assay: T cell growth, [3H]-thymidine take-up by spleen cells of mice primed with W. T. phage; type: cell-based, BALB/c mice; settings: phage 0.015 to 5 μg/ml, three days culture, FIG. 4
Experimental: BALB/c mice (6 weeks old; four animals per group) were used in an experiment and the phages were purified as described by Smith et al. (G. P. Smith, Method in Enzymology, Vol. 217, p.228-257 (1993), Academic Press). An amount of the phages was measured using protein assay kit (BioRad) with bovine serum albumin as a standard and expressed as a protein concentration.
First, for antigen, stimulation, BALB/c mice were administered intraperitoneally with 10 μg (200 μl/PBS) of phage (W. T.) not expressing pIII protein. Four weeks after the administration, spleen cells were removed from each mouse in the usual manner. The spleen cells were added to each well of 96-well culture plate at 1.5×10^5 cells/well. To each well was added purified W. T. or phages expressing any of F1 to F6 sequence at a final concentration of 0.015 to 5 μg/ml to make a total volume of 200 μl (RPMS 1640 medium containing 10% FCS) Triplicates were used for each sample. After incubating these samples on ice for 30 minutes, the cells were cultured under condition of 5% CO2 at 37° C. for three days. Eighteen hours before completion of culture, the cells were pulse-labeled with [^3H]-thymidine (0.5 μCi/well). The cells were harvested with a cell harvester and a take-up of [^3H]-thymidine was measured with a liquid scintillation counter.

[3] = molecular target: T1, mouse CD80-Ig (Mus musculus, UniProt Q00609); assay: ELISA: binding of plate-coated phages to mouse CD80-Ig; settings: for binding to mouse CD80-Ig: ELISA, 200 to 1000 ng/35 μl mouse CD80-Ig, FIG. 5
T1 construct: Ig (immunoglobulin fusion partner); made in house; host or cells: COS7 cells (pCDM8 plasmid), purified on Protein A Sepharose
T1 sequence (Q00609 38-246 limits assumed): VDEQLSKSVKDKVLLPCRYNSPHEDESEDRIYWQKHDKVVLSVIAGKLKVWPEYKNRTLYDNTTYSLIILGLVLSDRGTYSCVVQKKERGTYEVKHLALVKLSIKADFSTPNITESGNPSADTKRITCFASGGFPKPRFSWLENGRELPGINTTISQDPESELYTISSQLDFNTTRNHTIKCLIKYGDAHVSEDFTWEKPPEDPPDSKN
Experimental: (§1) The binding activity was measured by ELISA. A 96-well ELISA plate (Sumitomo Bakelite, Tokyo) was coated with phages expressing F2 or F6 sequence (4×10^9 virions/well/40 pi) at 4° C. overnight and then blocked with 50 mM Tris-HCl, pH 7.5, 150 mM NaCl (TBS) supplemented with 1% BSA at room temperature for 2 hours. After washing the plate with TBST, the plate was added with 200 to 1000 ng/35 μl of mouse CD80-Ig diluted with PBS and reacted at room temperature for 1 hour. After washing with TBST, the plate was reacted with alkali phosphatase-labeled anti-human IgG antibody (Zymet, California) diluted with TBS by 100-fold at room temperature for 1 hour. After washing, to the plate was added the substrate sodium p-nitrophenylphosphate hexahydrate and absorbance at 405 nm was measured.

[4] = system: anti-HBsAg antibody production; assay: Anti-HBsAg antibody production in mice immunized with yHBsAg together with phages; type: in vivo, BALB/c mice; settings: i.p. yHBsAg 10 μg with phage, boost at 15 days, blood three weeks after immunization, FIG. 11
Experimental: BALB/c mice (four animals per group) were administered intraperitoneally with either 10 μg (100 μl/PBS) of recombinant HBsAg produced in yeast (yHBsAg; Juridical Foundation The Chemo-Sero-Therapeutic Research Institute) alone or in combination with phages expressing F2 or F6 (10: pg/100 μl). Fifteen days after primary immunization, th-e same samples were administered intraperitoneally., Three weeks after primary immunization, each mouse was bled. Serum was diluted with PBS-to 50-fold, 200-fold and 800-fold and then anti-HBsAg antibody titer was measured with Ausab EIA kit (Abbott Laboratories).
The antibody titer was measured using a positive control attached to the kit as a standard.

[5] = system: T cells (spleen cells); assay: T cell growth stimulating activity in spleen cells of mice immunized with egg lysozyme; type: cell-based, BALB/c mice; settings: egg lysozyme 3 μg/ml plus phage 1 μg/ml added separately, W. T. phage as negative control, FIG. 8
Excerpt: In Example 6, there were used a phage protein as a primary antigen stimulation and the phage protein with expressed F2 or F6 sequence as a secondary stimulation in vitro. That is, in Example 6, a phage protein was used as an antigen and a secondary stimulation was made in a condition where both said antigen and F2 or F6 sequence are on the same particle. In this Example, however, the activity to stimulate the growth of T cells of phages expressing F2 or F6 as described in Example 6 was investigated wherein an antigen irrelevant to the phage (egg lysozyme) was used as a primary antigen stimulation and the egg lysozyme plus the phage particles expressing F2 or F6 sequence were separately added as a secondary stimulation.
Egg lysozyme 10 μg (100 μl/Freund's incomplete adjuvant (FIA)) was subcutaneously injected to BALB/c mice. Four weeks after administration, spleen cells and the relevant lymph nodes were removed from each mouse in a usual manner. Each well of 96-well culture plate was added with the spleen cells at 1.5×10^5 cells/well and with egg lysozyme at 3 μg/ml. Phages expressing F2 or F6 sequence were added at 1 μg/ml either at the same time, 1 day after, or 2 days after, the addition of egg lysozyme. As a negative control, W. T. phage was added. Measurement after culture was as described in Example 6.

[6] = system: T cells (spleen cells); assay: Effect of CD80-Ig or CD86-Ig on the T cell growth stimulating activity of the phages; type: cell-based, BALB/c mice; settings: phage 1 μg/ml, egg lysozyme 3 μg/ml; for effect of CD80-Ig on T cell growth stimulating activity: CD80-Ig 0-1 μg/ml, FIG. 9 and 10
Experimental: Each phage expressing F2 or F6 sequence reacted with anti-mouse CTLA-4 monoclonal antibody as shown in Example 5. Phage expressing F2 specifically bound to mouse CD80-Ig as shown in Example 7.
Egg lysozyme 50 μg (100 μl/PBS) was intraperitoneally administered to BALB/c mice. Four weeks after administration, spleen cells were removed from each mouse in a usual manner. In this Example, to each well of a 96-well culture plate were added the spleen cells at 1.5×10^5 cells/well and egg lysozyme at 3 μg/ml together with phage expressing F2 or F6 (1 μg/ml) and CD80-Ig or CD86-Ig or human Ig as a negative control at 0-1 μg/ml. The T cell growth stimulating activity was determined as described in Example 6.

[7] = molecular target: T2, human CD80-Ig (Homo sapiens, UniProt P33681); assay: ELISA: binding of phage expressing F2 sequence to human CD80-Ig; settings: mouse CTLA-4-Ig and human IgG as negative control, FIG. 7
T2 construct: a fused gene of human CD80 extracellular domain and human Ig Cγl domain; made in house; host or cells: COS7 cells (pCDM8 plasmid, DEAE-dextran), purified on Protein A Sepharose
T2 sequence (P33681 35-242 limits assumed): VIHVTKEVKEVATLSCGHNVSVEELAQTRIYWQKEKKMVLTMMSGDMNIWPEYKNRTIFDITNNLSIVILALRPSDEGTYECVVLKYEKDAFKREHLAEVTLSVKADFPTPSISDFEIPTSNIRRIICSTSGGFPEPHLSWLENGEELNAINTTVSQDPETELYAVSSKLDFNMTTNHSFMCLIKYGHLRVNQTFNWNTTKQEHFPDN
Experimental: as §1
Then, whether phage expressing F2 sequence specifically binds to human CD80-Ig was investigated in this Example as described in Example 7, FIG. 5.
Human CD80-Ig was prepared by constructing a fused gene of human CD80 extracellular domain and human Ig Cγl domain as described by Linsley et al. (J. Exp. Med. Vol. 173, p.721-730 (1991)). An expression plasmid pCDM8 incorporating the fused gene fragment was introduced into COS7 cells by DEAE-dextran method. After culturing for 72 hours, human CD80-Ig was purified from culture supernatant with Protein A Sepharose (Pharmacia). […]

[8] = molecular target: T3, mouse CTLA-4-Ig (mouse, UniProt P09793 36-161); assay: ELISA, F2 phage coated, reacted with mouse CD80-Ig, mouse CTLA-4-Ig and human IgG
T3 construct: also called CTLA-4-Ig chimeric molecule; not shown: Ig part of the chimera; not described for this construct

| Molecule | reactivity with anti-mouse CTLA-4 monoclonal antibody [1] | growth of T cells as compared to W. T. phage [2] | binding to mouse CD80-Ig [3] | anti-HBsAg antibody titer relative to group immunized with HBsAg alone (= 1) [4] | T cell growth stimulating activity, egg lysozyme as antigen [5] | effect of CD80-Ig on T cell growth stimulating activity [6] | also measured |
| --- | --- | --- | --- | --- | --- | --- | --- |
| GLHSRCHIGRDCSSA (cysteine pairing not given here) [F1] | reacted weakly | approximately equivalent to that with W. T. phage | – | – | – | – | – |
| HYGDCRYDLGSCRGA (cysteine pairing not given here) [F4] | reacted weakly | approximately equivalent to that with W. T. phage | – | – | – | – | – |
| GFVCSGIFAVGVGRC (cysteine pairing not given here) [F2] | reacted most strongly | – | bound to mouse CD80-Ig in a concentration-dependent manner | 17.9 | exhibited the antigen-specific activity to stimulate the growth of T cells | greatly inhibited | binding specificity to mouse CD80-Ig ([3]; ELISA against mouse CD80-Ig, mouse CTLA-4-Ig and human IgG, FIG. 6): specifically reacted with mouse CD80-Ig; binding to human CD80-Ig [7]: specifically bound to human CD80-Ig |
| SCVFHHSGRYWGRCV (cysteine pairing not given here) [F3] | reacted more weakly | approximately equivalent to that with W. T. phage | – | – | – | – | – |
| APGVRLGCAVLGRYC (cysteine pairing not given here) [F6] | reacted most strongly | – | do not bind to CD80/CD86 molecules | 11.9 | exhibited the antigen-specific activity to stimulate the growth of T cells | did not inhibit | effect of CD86-Ig on T cell growth stimulating activity ([6]; CD86-Ig 0-1 μg/ml, FIG. 10): did not inhibit |
| phage expressing F2 sequence (also called F2 phage) ADGAGFVCSGIFAVGVGRCGAAGAETVESCLAKPHTENSFTNVWKDDKTLDRYANYEGCLWNATGVVVCTGDETQCYGTWVPIGLAIPENEGGGSEGGGSEGGGSEGGGTKPPEYGDTPIPGYTYINPLDGTYPPGTEQNPANPNPSLEESQPLNTFMFQNNRFRNRQGALTVYTGTVTQGTDPVKTYYQYTPVSSKAMYDAYWNGKFRDCAFHSGFNEDPFVCEYQGQSSDLPQPPVNAGGGSGGGSGGGSEGGGSEGGGSEGGGSEGGGSGGGSGSGDFDYEKMANANKGAMTENADENALQSDAKGKLDSVATDYGAAIDGFIGDVSGLANGNGATGDFAGSNSQMAQVGDGDNSPLMNNFRQYLPSLPQSVECRPYVFGAGKPYEFSIDCDKINLFRGVFAFLLYVATFMYVFSTFANILRNKES | – | – | – | – | – | – | binding result [8]: no binding |
